# According to patent US12383579B2, “Materials and methods of using an inhibitor of plasminogen activation to treat anastomotic leak” (THE UNIVERSITY OF CHICAGO, priority 2018, dated 2025):
# Entries after “also recorded” stand apart in the source; their conditions may differ.
# What was measured:
# [1] = tested on: E. faecalis V583-induced AL
# Procedure: Mouse model of AL. The experiments disclosed herein used the validated model of pathogen-mediated AL in mice (8′). Ten- to 12-week-old C57BL/6 mice (Charles River) were provided standard chow and tap water ad libidum at all times. When indicated, mice received oral clindamycin (100 mg/kg gavage) and subcutaneous cefoxitin (40 mg/kg) the day prior to, and the day of, surgery. Mice underwent general anesthesia with intraperitoneal ketamine and xylocaine and laparotomy followed by transection of the colon at the colo-rectal junction followed by a primary anastomosis created with interrupted 8-0 prolene suture prior to abdominal closure with 4-0 vicryl suture in two layers. Rectal enemas containing pathogen, either E. faecalis or P. aeruginosa at an OD600 of 0.1 in 10% glycerol, were administered in 100 L enemas. E. faecalis was introduced on POD 1, 2, and 3, while P. aeruginosa was introduced only on POD 1. Mice received 100 L rectal enemas containing 50 mM TXA or vehicle control on postoperative days 1, 2, and 3. Rectal delivery with a gavage needle ensured local administration of pathogen and study drugs to the surgical site. […] Both the surgeon and the investigator performing analysis of healing were blind to the treatment group. […]
# [2] = molecular target: PLG activation by E. faecalis V583 (Homo sapiens, UniProt P00747); format: biochemical
# Procedure: Plasminogen/uPA activity. Plasmin activity assays were performed as previously described with minor modifications, and fluorescence data was analyzed per the manufacturer's instructions (50′). Incubation times were optimized for bacteria at low optical density to limit internal filter effects in fluorescence-based assays. Bacteria (when included) were grown overnight in TY media. OD600 was normalized by dilution to 0.1, equivalent to 8×10^7 CFU/mL. Samples at OD 0.1 were diluted 1:10 in the final reaction through the addition of media and dissolved substrates. Bacteria were incubated with 250 nM human glu-plasminogen (Haematologic technologies) for two hours at 37° C. TXA (Fisher) was added concomitantly with PLG. […] A final concentration of 6 M fluorogenic substrate specific for plasmin (H-D-Val-Leu-Lys-AFC, AnaSpec) was added immediately prior to a kinetic fluorescent read with excitation wavelength 380 nm and emission wavelength 500 nm. Reads were conducted every 15 to 30 seconds over the course of 30 minutes. […] When assays were performed in human plasma, fluorescence was read for 120 minutes total.
# Plasmin or uPA activity is expressed as initial reaction velocity calculated from change in fluorescence over time during the initial phase of the reaction, when pseudo-first order kinetics determine the rate due to high substrate concentrations where a linear rise in fluorescence is observed. […]
# RAW macrophages [3] = test: Collagen degradation by RAW macrophages given RAW/E44s conditioned media; format: cell-based, murine; settings: TXA 10 mM, PLG 250 nm, MMP9 1 nM, 4 hours
# Procedure: FIG. 16. […] (A), E. faecalis E44 was grown in TY media overnight, and cell-free conditioned media (E44s) was applied to RAW macrophages for 4 hours. PLG, 250 nm, was included in the reaction. […] PLG activation was measured by fluorogenic substrate cleavage. “RAW” column is naïve RAW. *p<0.05, n=6/group. (B), Conditioned media after co-interaction of macrophages with E. faecalis E44 (named RAW/E44s) was applied to naïve RAW macrophages for 4 hours. PLG, 250 nm, and MMP9, 1 nM, were in all reactions. […] “RAW+RAWs” column is naïve macrophages incubated with conditioned media of RAW macrophages (no E. faecalis E44). *p<0.05, n=6/group.
# It was then tested whether macrophage collagen degradation activity is enhanced by stimulation with E. faecalis. Conditions from the above experiment (RAW/E44 s) with naïve RAW macrophages were used. PLG and MMP9 were included in the reaction. Degradation of collagen was enhanced by secreted factors produced during the co-interaction of RAW and E44s. […] Finally, to investigate the mechanism of PLG activation by E. faecalis, a parent collagenolytic strain isolated from a patient with AL (V583) was used, along with its mutant derivative (DDGelE/Spr) with secretory collagenolytic factors serine protease (Spr) and gelatinase (GelE) genetically removed. […]
# RAW macrophages [4] = test: PLG activation by RAW macrophages stimulated with E44 conditioned media; format: cell-based, murine; settings: TXA 10 mM, PLG 250 nm, 4 hours
# Procedure: (A), E. faecalis E44 was grown in TY media overnight, and cell-free conditioned media (E44s) was applied to RAW macrophages for 4 hours. PLG, 250 nm, was included in the reaction. TXA, 10 mM, was added when needed. PLG activation was measured by fluorogenic substrate cleavage. “RAW” column is naïve RAW. *p<0.05, n=6/group. (B), Conditioned media after co-interaction of macrophages with E. faecalis E44 (named RAW/E44s) was applied to naïve RAW macrophages for 4 hours. PLG, 250 nm, and MMP9, 1 nM, were in all reactions. TXA, 10 mM, was added when needed. “RAW+RAWs” column is naïve macrophages incubated with conditioned media of RAW macrophages (no E. faecalis E44). *p<0.05, n=6/group.
# RAW 264.7 or J774 murine macrophages were incubated at 37° C. and 5% CO2 in Dulbecco's modified eagle media (DMEM) with 10% fetal bovine serum, penicillin/streptomycin and antifungals during growth. For plasmin activity assays, cells were plated at 10^4 cells/well on a 96-well plate in phenol-free DMEM with 1% FBS. Added bacteria were in low volumes of TY.
# RAW 267.4 murine macrophages are co-incubated with E44, reasoning that bacteria and macrophages regularly co-interact in healing gut tissue. […] To confirm the expectation, naïve macrophages were stimulated with conditioned media from E44 overnight culture.
# [5] = molecular target: T1, P. aeruginosa MPAO1-P2 plasminogen activation (Homo sapiens, UniProt P00747); test: PLG activation by P. aeruginosa; format: biochemical; settings: TY 1:1 with PBS (10 mM phosphate), or water plus 10 mM TXA, versus water alone
# T1 construct: 250 nM human glu-plasminogen (Haematologic technologies); purchased Haematologic technologies
# Procedure: Plasminogen/uPA activity. Plasmin activity assays were performed as previously described with minor modifications, and fluorescence data was analyzed per the manufacturer's instructions (50′). Incubation times were optimized for bacteria at low optical density to limit internal filter effects in fluorescence-based assays. Bacteria (when included) were grown overnight in TY media. OD600 was normalized by dilution to 0.1, equivalent to 8×10^7 CFU/mL. Samples at OD 0.1 were diluted 1:10 in the final reaction through the addition of media and dissolved substrates. Bacteria were incubated with 250 nM human glu-plasminogen (Haematologic technologies) for two hours at 37° C. TXA (Fisher) was added concomitantly with PLG. A final concentration of 4 nM uPA (Biovision) or pro-uPA (Biovision) was added and incubation proceeded for 20 minutes. A final concentration of 6 M fluorogenic substrate specific for plasmin (H-D-Val-Leu-Lys-AFC, AnaSpec) was added immediately prior to a kinetic fluorescent read with excitation wavelength 380 nm and emission wavelength 500 nm. Reads were conducted every 15 to 30 seconds over the course of 30 minutes. For assays of uPA activity, PLG was omitted from the incubation and a substrate specific to uPA (Z-Gly-Gly-Arg-AMC, Bachem) was used. When assays were performed in human plasma, fluorescence was read for 120 minutes total. […]
# [6] = tested on: collagenolytic E. faecalis; test: Quantitative culture of collagenolytic E. faecalis after V583-induced AL
# [7] = tested on: type IV collagen degradation by collagenolytic E. faecalis E44; test: Collagen degradation by E. faecalis E44 with PLG, uPA and MMP9; format: biochemical, Enterococcus faecalis; settings: fluorescently tagged type IV collagen
# Procedure: Collagen degradation. Assays were performed per the manufacturer's instructions as previously described with slight modifications (51′). Bacteria were grown overnight in TY. Optical density was normalized to 0.1 through dilution. […] Total reaction volume was 200 L. The incubation proceeded at 37° C. for 5 hours to allow for bacterial attachment to collagen and PLG binding. uPA was added and the incubation proceeded for an additional hour. Change in fluorescence over time at 480/520 nm was determined kinetically over the initial 30 minutes of the reaction.
# The role of activated plasminogen (PLG) in anastomotic leak. […] Co-incubation of E44 with murine macrophages ([…]) was performed for studies involving conditioned media. Twenty-week-old male C57BL/6 mice underwent the validated model of E44-induced AL that includes preoperative antibiotics to defaunate the colon, surgical transection and anastomosis of the colon and introduction of E44 in 10% glycerol to the surgical site via rectal enema on postoperative day 1. […] Anastomotic healing was assessed blindly using a validated anastomotic healing score (AHS): 0=uncomplicated healing, 1=flimsy adhesions, 2=dense adhesions, 3=abscess, and 4=gross anastomotic disruption. AL was defined as AHS 3 or above.
# E. faecalis = E. faecalis growth (OD600 over four hours); format: cell-based, Enterococcus faecalis; settings: TXA added to culture medium
# Description: FIG. 44. […] Figures are representative of three separate experiments, each run in triplicate. Error bars indicate means±SD.
# [8] = molecular target: PLG with uPA and pro-MMP9 (Homo sapiens, UniProt P00747); test: Collagen/gelatin degradation by PLG, uPA and pro-MMP9 in a sterile system; format: biochemical
# Chain of PLG with uPA and pro-MMP9 (P00747 20-810 limits assumed): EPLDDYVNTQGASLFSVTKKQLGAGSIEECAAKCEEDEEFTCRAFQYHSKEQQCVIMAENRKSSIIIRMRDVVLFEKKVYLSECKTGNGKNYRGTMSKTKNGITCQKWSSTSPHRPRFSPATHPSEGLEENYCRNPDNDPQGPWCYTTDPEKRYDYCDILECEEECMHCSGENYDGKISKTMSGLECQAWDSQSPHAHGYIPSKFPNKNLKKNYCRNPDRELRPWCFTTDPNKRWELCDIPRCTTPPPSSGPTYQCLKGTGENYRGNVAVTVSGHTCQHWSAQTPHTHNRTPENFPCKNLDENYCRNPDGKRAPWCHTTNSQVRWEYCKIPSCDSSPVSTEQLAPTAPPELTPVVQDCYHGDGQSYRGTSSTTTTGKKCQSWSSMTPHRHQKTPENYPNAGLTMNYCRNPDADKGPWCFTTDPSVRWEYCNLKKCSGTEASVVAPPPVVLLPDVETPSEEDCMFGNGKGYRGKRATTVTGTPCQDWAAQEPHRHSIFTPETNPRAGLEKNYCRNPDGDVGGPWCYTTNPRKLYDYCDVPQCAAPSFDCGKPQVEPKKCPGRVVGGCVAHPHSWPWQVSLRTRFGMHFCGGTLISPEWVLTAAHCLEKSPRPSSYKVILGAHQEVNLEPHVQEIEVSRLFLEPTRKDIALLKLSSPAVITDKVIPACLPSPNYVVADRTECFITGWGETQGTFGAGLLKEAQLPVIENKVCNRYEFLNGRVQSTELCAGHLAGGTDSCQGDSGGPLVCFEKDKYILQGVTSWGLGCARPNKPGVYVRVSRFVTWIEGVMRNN
# Procedure: Collagen degradation. Assays were performed per the manufacturer's instructions as previously described with slight modifications (51′). Bacteria were grown overnight in TY. Optical density was normalized to 0.1 through dilution. Bacteria were then incubated with fluorescein-labeled type I collagen, type IV collagen, or gelatin according to the manufacturer's instructions (ThermoFisher), human PLG at 250 nM and TXA. Total reaction volume was 200 L. The incubation proceeded at 37° C. for 5 hours to allow for bacterial attachment to collagen and PLG binding. uPA was added and the incubation proceeded for an additional hour. Change in fluorescence over time at 480/520 nm was determined kinetically over the initial 30 minutes of the reaction.
# Chain of PLG activation by E. faecalis V583 (P00747 20-810): as the sequence (P00747 20-810 limits assumed) above
# T1 sequence (P00747 20-810): as the sequence (P00747 20-810 limits assumed) above
smiles,measurement,setting,value
"NC[C@H]1CC[C@H](C(=O)O)CC1 [TXA, tranexamic acid]",mean anastomotic healing score (AHS),"[1]; 100 μL enema of 50 mM TXA POD 1, 2, 3, POD 8, vehicle 2.7±0.2",1.5±0.2
same,trichrome staining of POD8 anastomotic tissue,[1]; TXA enema versus vehicle with AL,increased quantity and organization of fibroblastic products in the submucosa
same,reduction in PLG activation by E. faecalis,"[2]; in vitro, concentrations lower than circulating concentration after PO dosing (FIG. 23)",20%
same,PLG activation by V583 in the presence of uPA,"[2]; plasmin activity assay, PLG 250 nM, uPA",inhibited PLG activation by V583 in a concentration-dependent manner
same,collagen degradation by macrophages given RAW/E44s conditioned media,RAW macrophages [3],attenuated
same,PLG activation by macrophages stimulated with E44 conditioned media,RAW macrophages [4],This effect was inhibited
same,PLG activation by P. aeruginosa,[5],significantly attenuated
same,PLG activation by P. aeruginosa,[5]; listed as Tranexamic acid,inhibits
same,collagenolytic E. faecalis in anastomotic luminal contents,"[6]; POD 3, versus water enema",significantly decreased
same,CFU/mg collagenolytic E. faecalis in anastomotic tissue,"[6]; POD 8, versus water enema",significantly fewer
same,collagenolytic E. faecalis in anastomotic luminal contents,"[6]; POD 8, versus water enema",persisted but did not reach statistical significance
same,CFU/mg collagenolytic E. faecalis in anastomotic tissue,"[6]; day 3, versus water enema",no difference was observed
same,"collagen degradation by E44 with PLG, uPA and MMP9",[7],inhibited by TXA in a concentration-dependent fashion; also recorded: collagen degradation was inhibited
same,"collagen degradation by E44 with PLG, uPA and MMP9",[7]; listed as tranexamic acid,inhibited in a concentration-dependent manner
same,bacterial growth (change in OD600 over four hours),E. faecalis,no effect on bacterial growth
same,gelatin / type IV collagen degrading activity of PLG with uPA and pro-MMP9,[8],inhibited in a concentration-dependent manner
